Laboratory results taken from paper PMC5516028, “Molecular tools for GABAA receptors: High affinity ligands for β1-containing subtypes” (Scientific Reports, 2017).
Read-outs that look alike come from different tables or passages of the source.

Key:
α5β1γ2 GABAA receptors = biological target: α5β1γ2 GABAA receptors; parameters: method as in earlier work; settings: published data, ref 1 (Supplementary References), read-out: Approximate EC50; cited from earlier work
α1β1δ GABAA receptors = biological target: T1, α1β1δ GABAA receptors (Rattus norvegicus, UniProt P15431+P62813); experiment: Two electrode voltage clamp in Xenopus laevis oocytes, α1β1δ; assay type: cell-based; settings: α1β1δ
T1 construct: expressed in transfected cells; host or cells: Xenopus laevis oocytes, mRNA injected
Description: cDNA’s of rat GABAA receptor subunits α1, α4, β1, β2, β3 and γ2S were cloned as described. cDNAs of the rat subunits α2, α3 and α5 were gifts from P. Malherbe, that of α6 and γ1 were gifts of P. Seeburg and that of δ was a gift of C. Czajkowski. The mutants were constructed using the Q5 Site-Directed Mutagenesis Kit (New England Biolabs) following manufacturer’s instruction. We used the wild-type rat β3-pCI vector as template and the primers […] and […] resulting in a substitution of amino acid N41 (AAC) to R (AGG). We used the wild-type rat β1-pCI vector as template and the primers […] and […] resulting in a substitution of amino acid R41 (CGG) to N (AAC). The mutated subunits were confirmed by sequencing.
In vitro transcription of mRNA was based on the cDNA expression vectors encoding for rat GABAA receptor subunits α1–6, β1-3, γ1,2, δ and the two β mutants (β1R41N and β3N41R)[40]. After linearizing the cDNA vectors with appropriate restriction endonucleases, the cDNA was purified and concentrated with the DNA Clean and Contentrator ^TM Kit (Zymoresearch, Catalog No. D4005). Capped transcripts of the purified cDNA were produced using the mMESSAGE mMACHINE® T7 transcription kit (Ambion, TX, USA) and polyadenylated using the Ambion PolyA tailing kit (Ambion). After transcription and polyadenylation the RNA was purified with the MEGAclear ^TM Kit (Ambion, Catalog No. AM1908). The final RNA concentration was measured on NanoDrop® ND-1000 and finally diluted and stored in diethylpyrocarbonate-treated water at −80 °C. For the microinjection, the RNA of αβ receptor combinations was mixed at 1:1 ratio (which leads to αβ receptors that consist of predominantly 3 beta and 2 alpha subunits[27]), for αkβlγm (k = 1–3, l = 1, 3, m = 1, 2) receptors at 1:1:5 ratio, for αkβ3γ2 (k = 4–6) and αkβlδ (k = 1, 4 and 6, l = 1, 3) receptor combinations at 3:1:5 ratio.
Mature female Xenopus laevis (Nasco, WI) were anesthetized in a bath of ice-cold 0.17% Tricain (Ethyl-m-aminobenzoate, Sigma, MO) before decapitation in full accordance with all rules of the Austrian animal protection law (see http://www.ris.bka.gv.at/Dokumente/BgblAuth/BGBLA_2012_I_114/BGBLA_2012_I_114.pdf) and the Austrian animal experiment by-laws (see https://www.ris.bka.gv.at/Dokumente/BgblAuth/BGBLA_2012_II_522/BGBLA_2012_II_522.pdf) which implement the European Directive 2010/63/EU (see http://eur-lex.europa.eu/LexUriServ/LexUriServ.do?uri=OJ:L:2010:276:0033:0079:en:PDF) into the Austrian law (all information accessed on July 27, 2016). The frog’s ovaries were transferred to ND96 medium (96 mM NaCl, 2 mM KCl, 1 mM MgCl2, 5 mM HEPES; pH 7.5). Stage 5–6 oocytes with the follicle cell layer around them were roughly dissected with forceps into packages of 10–15 cells and washed in Ca^2+-free ND96 medium. Cells were then digested with collagenase (type IA, Sigma, NO, 1 mg/mL ND96) at 18 °C shaking at 30 rpm for 30–60 minutes and gently defolliculated with the aid of a glass pipette with appropriate tip diameter and a platinum loop. Defolliculated cells were stored at 18 °C for at least 6 hours in ND96 solution containing penicillin G (10000 IU/100 mL) and streptomycin (10 mg/100 mL) in order to preselect and exclude damaged cells from further treatment. Healthy defolliculated oocytes were injected with an aqueous solution of mRNA. A total of 4.5 ng of mRNA per oocyte was injected with a Nanoject II (Drummond). After injection of mRNA, oocytes were incubated at 18 °C (ND96 + antibiotic) for 2–3 days for αβ receptors and for 3–4 days for αβγ or αβδ receptors before recording. When cells were measured at later time points, oocytes were stored at +4 °C instead of 18 °C.
For electrophysiological recordings, oocytes were placed on a nylon-grid in a bath of Ca^2+-containing NDE solution medium [96 mM NaCl, 5 mM HEPES-NaOH (pH 7.5), 2 mM KCl, 1 mM MgCl2, 1.8 mM CaCl2].

α2β3γ2 GABAA receptors = biological target: T2, α2β3γ2 GABAA receptors (Rattus norvegicus, UniProt P23576+P63079); parameters: method as in earlier work; settings: published data, ref 1 (Supplementary References), read-out: Approximate EC50; cited from earlier work
T2 construct: expressed in transfected cells; host or cells: Xenopus laevis oocytes, mRNA injected

α3β2γ2 GABAA receptors = biological target: α3β2γ2 GABAA receptors; parameters: method as in earlier work; settings: published data, ref 1 (Supplementary References), read-out: Approximate EC50; cited from earlier work
α3β3γ2 GABAA receptors = biological target: T3, α3β3γ2 GABAA receptors (Rattus norvegicus, UniProt P20236+P63079); parameters: method as in earlier work; settings: published data, ref 1 (Supplementary References), read-out: Approximate EC50; cited from earlier work
T3 construct: expressed in transfected cells; host or cells: Xenopus laevis oocytes, mRNA injected

α3β3 GABAA receptors = biological target: T4, α3β3 GABAA receptors (Rattus norvegicus, UniProt P20236+P63079); parameters: method as in earlier work; settings: published data, ref 1 (Supplementary References), read-out: Approximate EC50; cited from earlier work
T4 construct: expressed in transfected cells; host or cells: Xenopus laevis oocytes, mRNA injected

α4β3γ2 GABAA receptors = biological target: T5, α4β3γ2 GABAA receptors (Rattus norvegicus, UniProt P28471+P63079); parameters: method as in earlier work; settings: published data, ref 1 (Supplementary References), read-out: Approximate EC50; cited from earlier work
T5 construct: expressed in transfected cells; host or cells: Xenopus laevis oocytes, mRNA injected
T5 sequence (P28471 36-552): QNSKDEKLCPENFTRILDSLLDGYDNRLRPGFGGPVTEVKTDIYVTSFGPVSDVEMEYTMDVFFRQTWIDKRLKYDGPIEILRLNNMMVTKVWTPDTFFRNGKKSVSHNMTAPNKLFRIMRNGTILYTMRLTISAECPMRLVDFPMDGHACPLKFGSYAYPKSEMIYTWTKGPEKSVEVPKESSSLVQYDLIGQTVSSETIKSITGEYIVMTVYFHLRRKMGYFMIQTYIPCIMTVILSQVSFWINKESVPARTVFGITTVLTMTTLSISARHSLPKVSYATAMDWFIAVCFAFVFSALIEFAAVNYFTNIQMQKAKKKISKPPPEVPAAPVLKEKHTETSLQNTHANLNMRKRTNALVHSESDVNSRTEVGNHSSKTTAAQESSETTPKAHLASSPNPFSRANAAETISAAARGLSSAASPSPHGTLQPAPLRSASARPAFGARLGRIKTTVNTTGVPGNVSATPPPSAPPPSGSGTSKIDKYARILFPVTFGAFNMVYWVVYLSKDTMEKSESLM
T5 sequence (P63079 26-473): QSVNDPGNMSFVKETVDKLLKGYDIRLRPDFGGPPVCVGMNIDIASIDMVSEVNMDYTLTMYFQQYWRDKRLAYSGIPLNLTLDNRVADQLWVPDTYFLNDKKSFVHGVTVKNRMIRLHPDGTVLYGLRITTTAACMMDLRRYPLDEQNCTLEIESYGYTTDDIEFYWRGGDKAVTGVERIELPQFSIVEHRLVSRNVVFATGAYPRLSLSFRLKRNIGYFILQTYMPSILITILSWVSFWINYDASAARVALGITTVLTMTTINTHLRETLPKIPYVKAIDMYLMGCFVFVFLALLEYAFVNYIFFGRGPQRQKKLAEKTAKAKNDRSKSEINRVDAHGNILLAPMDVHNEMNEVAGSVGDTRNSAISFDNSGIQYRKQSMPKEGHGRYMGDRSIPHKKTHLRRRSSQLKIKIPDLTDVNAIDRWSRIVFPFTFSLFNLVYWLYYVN
T5 sequence (P18508 39-466 partner): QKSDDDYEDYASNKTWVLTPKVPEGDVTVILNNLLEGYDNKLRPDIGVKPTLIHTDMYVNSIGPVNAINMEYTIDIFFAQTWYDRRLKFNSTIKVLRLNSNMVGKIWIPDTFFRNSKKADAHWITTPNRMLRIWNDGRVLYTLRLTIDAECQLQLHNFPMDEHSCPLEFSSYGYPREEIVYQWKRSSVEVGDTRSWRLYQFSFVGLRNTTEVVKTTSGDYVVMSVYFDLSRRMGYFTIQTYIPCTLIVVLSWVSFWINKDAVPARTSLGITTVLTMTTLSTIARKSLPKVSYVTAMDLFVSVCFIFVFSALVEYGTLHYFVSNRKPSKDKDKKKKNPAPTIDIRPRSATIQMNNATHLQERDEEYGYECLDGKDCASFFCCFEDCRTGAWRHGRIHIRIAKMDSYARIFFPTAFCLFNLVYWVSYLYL

T1 sequence (P62813 28-455): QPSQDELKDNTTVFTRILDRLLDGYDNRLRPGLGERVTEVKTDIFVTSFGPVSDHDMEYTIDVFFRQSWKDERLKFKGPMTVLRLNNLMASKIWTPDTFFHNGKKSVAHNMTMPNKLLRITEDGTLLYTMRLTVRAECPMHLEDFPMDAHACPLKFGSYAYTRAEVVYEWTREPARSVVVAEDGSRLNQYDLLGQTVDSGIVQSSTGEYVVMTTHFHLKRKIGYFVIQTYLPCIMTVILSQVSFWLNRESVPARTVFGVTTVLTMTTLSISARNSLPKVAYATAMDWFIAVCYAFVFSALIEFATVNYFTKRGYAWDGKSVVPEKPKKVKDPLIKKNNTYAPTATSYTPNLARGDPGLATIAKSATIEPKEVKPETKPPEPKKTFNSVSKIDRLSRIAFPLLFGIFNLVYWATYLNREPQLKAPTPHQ
T1 sequence (P15431 26-474): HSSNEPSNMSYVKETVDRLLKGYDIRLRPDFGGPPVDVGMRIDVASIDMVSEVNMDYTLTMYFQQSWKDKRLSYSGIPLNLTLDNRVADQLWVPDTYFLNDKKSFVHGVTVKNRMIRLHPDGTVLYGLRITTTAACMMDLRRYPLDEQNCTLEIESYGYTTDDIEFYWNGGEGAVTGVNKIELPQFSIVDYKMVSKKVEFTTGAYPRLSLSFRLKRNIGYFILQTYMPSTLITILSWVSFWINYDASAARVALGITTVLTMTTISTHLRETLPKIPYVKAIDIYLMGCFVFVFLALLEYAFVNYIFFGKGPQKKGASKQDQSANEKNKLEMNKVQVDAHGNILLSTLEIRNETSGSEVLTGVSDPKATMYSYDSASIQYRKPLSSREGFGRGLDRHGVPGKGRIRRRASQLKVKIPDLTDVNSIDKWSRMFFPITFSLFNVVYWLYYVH
T1 sequence (P18506 17-449 partner limits assumed): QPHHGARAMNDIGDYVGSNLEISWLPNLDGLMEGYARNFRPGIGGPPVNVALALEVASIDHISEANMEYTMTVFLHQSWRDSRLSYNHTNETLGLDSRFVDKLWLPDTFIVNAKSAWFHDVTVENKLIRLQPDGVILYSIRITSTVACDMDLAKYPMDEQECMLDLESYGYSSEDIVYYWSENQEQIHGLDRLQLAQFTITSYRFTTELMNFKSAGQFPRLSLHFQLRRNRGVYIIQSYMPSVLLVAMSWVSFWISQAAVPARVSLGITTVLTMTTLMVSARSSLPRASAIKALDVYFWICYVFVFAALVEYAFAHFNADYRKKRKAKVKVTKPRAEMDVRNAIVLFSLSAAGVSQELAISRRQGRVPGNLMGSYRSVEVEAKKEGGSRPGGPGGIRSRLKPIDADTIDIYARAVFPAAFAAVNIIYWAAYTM
T3 sequence (P20236 29-493): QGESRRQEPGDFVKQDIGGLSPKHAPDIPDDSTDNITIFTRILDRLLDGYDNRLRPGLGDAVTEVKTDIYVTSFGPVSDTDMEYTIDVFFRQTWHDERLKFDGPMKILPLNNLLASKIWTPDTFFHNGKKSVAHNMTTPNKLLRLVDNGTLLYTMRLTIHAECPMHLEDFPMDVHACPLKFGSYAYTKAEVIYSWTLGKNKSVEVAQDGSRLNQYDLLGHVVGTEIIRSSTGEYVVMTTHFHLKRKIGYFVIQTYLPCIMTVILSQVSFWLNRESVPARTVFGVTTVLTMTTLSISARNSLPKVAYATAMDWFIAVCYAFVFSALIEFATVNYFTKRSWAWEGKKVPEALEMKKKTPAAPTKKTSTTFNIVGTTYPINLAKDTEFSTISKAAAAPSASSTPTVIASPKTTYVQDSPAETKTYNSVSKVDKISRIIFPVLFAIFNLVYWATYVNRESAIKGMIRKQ
T3 sequence (P63079 26-473): as the sequence (P63079 26-473) above
T3 sequence (P18508 39-466 partner): as the sequence (P18508 39-466 partner) above
T4 sequence (P20236 29-493): as the sequence (P20236 29-493) above
T4 sequence (P63079 26-473): as the sequence (P63079 26-473) above
T2 sequence (P23576 29-451): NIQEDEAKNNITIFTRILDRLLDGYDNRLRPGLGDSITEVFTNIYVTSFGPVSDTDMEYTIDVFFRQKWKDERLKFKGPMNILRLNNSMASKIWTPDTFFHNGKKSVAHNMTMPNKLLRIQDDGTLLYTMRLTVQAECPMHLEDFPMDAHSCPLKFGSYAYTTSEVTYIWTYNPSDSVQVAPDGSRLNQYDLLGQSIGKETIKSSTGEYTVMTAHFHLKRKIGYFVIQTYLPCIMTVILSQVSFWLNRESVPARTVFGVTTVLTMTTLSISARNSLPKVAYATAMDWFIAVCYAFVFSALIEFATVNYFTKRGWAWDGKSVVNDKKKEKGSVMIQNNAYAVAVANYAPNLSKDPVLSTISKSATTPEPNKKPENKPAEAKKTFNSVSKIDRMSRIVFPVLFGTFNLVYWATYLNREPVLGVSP
T2 sequence (P63079 26-473): as the sequence (P63079 26-473) above
T2 sequence (P18508 39-466 partner): as the sequence (P18508 39-466 partner) above

COc1ccc(-n2nc3c4cc(Cl)ccc4[nH]cc-3c2=O)cc1 [Compound 1, 8-Chloro-2-(4-methoxyphenyl)-2H-pyrazolo[4,3-c]quinolin-3(5H)-one]
EC50 (α5β1γ2 GABAA receptors): ~0.05 µM
activity at 0.01 µM (α1β1δ GABAA receptors; read-out: efficacy, % of control current (GABA EC3-5 = 100%), 10 nM): 126 ± 5.6%
activity at 0.03 µM (α1β1δ GABAA receptors; read-out: efficacy, % of control current (GABA EC3-5 = 100%), 30 nM): 192 ± 21.1%
activity at 10 µM (α1β1δ GABAA receptors; read-out: efficacy, % of control current (GABA EC3-5 = 100%), 10 µM): 294 ± 11.1%
Hill slope (nH) (α1β1δ GABAA receptors): 0.8±0.2
EC50 (α1β1δ GABAA receptors; co-applied with GABA EC3-5, read-out: EC50): 0.07 µM
EC50 (α1β1δ GABAA receptors; log of EC50, sign as printed, read-out: LogEC50 (converted)): 0.1 µM
EC50 (α2β3γ2 GABAA receptors): ~2.2 µM
EC50 (α3β2γ2 GABAA receptors): ~2.1 µM
EC50 (α3β3γ2 GABAA receptors): ~1.5 µM
EC50 (α3β3 GABAA receptors): ~1.8 µM
EC50 (α4β3γ2 GABAA receptors): ~0.9 µM
